Laboratory results taken from BindingDB's records for doi:10.1021/cb500956g (University of North Carolina At Chapel Hill, 2015).

What was measured:
Details in all cases: pH 8
[1] = biological target: T1, Chromobox protein homolog 7 (Homo sapiens, UniProt O95931); experiment: AlphaScreen Assay
T1 sequence (O95931 whole entry): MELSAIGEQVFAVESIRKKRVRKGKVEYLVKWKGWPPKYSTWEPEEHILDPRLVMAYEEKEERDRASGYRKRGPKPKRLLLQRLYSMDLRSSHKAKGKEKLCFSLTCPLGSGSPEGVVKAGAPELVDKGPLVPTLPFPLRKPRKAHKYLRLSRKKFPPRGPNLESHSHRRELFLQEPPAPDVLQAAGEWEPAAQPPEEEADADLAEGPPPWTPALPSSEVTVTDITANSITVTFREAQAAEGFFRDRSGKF
Description: (§1) In brief, compound plates (1 μL at 10 mM highest concentration; 3-fold, 10-point dilutions in DMSO) were diluted in 1X assay buffer (20 mM TRIS pH 8.0, 25 mM NaCl, 2 mM DTT and 0.05% Tween-20) to 1 mM using a Multimek robotic pipettor (Nanoscreen), and 1 μL was spotted into the wells of 384-well low-volume Proxiplates (PerkinElmer). To these plates was added 9 μL of protein−peptide mix in a 1X assay buffer by Multidrop (Thermo) to bring the final compound concentration to 100 μM, and this was incubated for 30 min at RT. Next, 2 μL of a 1:1 mixture of streptavidin-conjugate donor and nickel-chelate acceptor beads (45μg/mL in 1X assay buffer) were added, and the plates were allowed to incubate for an additional 30 min in the dark at RT. After incubation, the plates were read on an EnVision multilabel reader equipped with an HTS AlphaScreen laser (PerkinElmer).

[2] = biological target: T2, E3 ubiquitin-protein ligase UHRF1 (Homo sapiens, UniProt Q96T88); experiment: AlphaScreen Assay
T2 sequence (Q96T88 whole entry): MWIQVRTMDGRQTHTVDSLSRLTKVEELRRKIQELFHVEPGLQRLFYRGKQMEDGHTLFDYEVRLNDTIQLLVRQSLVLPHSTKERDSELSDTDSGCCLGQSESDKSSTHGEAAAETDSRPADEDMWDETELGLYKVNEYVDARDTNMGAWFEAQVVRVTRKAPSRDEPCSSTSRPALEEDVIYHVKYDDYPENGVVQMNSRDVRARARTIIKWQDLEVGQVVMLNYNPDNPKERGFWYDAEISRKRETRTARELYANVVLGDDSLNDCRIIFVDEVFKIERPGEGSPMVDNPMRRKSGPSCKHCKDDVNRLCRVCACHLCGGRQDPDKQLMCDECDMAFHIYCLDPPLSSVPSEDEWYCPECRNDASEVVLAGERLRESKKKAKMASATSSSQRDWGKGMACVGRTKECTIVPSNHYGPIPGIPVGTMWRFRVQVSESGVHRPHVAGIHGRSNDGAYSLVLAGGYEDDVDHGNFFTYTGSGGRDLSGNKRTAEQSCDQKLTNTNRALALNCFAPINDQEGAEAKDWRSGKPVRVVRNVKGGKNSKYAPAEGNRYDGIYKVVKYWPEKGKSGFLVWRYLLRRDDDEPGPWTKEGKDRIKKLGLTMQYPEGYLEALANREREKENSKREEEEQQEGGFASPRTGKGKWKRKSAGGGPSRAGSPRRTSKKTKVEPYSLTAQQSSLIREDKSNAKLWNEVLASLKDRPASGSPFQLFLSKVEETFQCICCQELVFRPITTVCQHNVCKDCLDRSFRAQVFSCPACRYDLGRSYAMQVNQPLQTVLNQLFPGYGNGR
Description: as §1

PHD finger protein 19 = PHD finger protein 19 (Homo sapiens, UniProt Q5T6S3); experiment: AlphaScreen Assay
Description: as §1

[3] = biological target: MBT domain-containing protein 1 (Homo sapiens, UniProt Q05BQ5); experiment: AlphaScreen Assay
Description: as §1

PHD finger protein 23 = PHD finger protein 23 (Homo sapiens, UniProt Q9BUL5); experiment: AlphaScreen Assay
Description: as §1

[4] = biological target: Lysine-specific demethylase 5A (Homo sapiens, UniProt P29375); experiment: AlphaScreen Assay
Description: as §1

PHD finger protein 1 = biological target: T3, PHD finger protein 1 (Homo sapiens, UniProt O43189); experiment: AlphaScreen Assay
T3 sequence (O43189 whole entry): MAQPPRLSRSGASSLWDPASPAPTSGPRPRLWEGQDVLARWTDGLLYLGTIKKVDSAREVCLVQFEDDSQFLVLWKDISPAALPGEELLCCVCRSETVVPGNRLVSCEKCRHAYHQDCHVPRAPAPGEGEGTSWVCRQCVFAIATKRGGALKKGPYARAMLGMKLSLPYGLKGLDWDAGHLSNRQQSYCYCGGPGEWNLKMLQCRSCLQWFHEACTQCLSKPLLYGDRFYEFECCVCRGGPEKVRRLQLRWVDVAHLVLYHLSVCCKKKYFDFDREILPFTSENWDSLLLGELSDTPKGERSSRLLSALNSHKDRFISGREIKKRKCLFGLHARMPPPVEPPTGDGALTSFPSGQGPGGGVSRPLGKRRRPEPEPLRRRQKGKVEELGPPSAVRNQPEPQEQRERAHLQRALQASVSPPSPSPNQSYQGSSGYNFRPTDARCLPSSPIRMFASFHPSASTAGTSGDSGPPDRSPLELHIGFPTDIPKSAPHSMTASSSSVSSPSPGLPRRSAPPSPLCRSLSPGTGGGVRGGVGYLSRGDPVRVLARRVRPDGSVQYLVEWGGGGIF
Description: as §1

[5] = biological target: T4, Isoform 4 of Lethal(3)malignant brain tumor-like protein 1 (4) (Homo sapiens, UniProt Q9Y468); experiment: AlphaScreen Assay
T4 sequence (Q9Y468 whole entry): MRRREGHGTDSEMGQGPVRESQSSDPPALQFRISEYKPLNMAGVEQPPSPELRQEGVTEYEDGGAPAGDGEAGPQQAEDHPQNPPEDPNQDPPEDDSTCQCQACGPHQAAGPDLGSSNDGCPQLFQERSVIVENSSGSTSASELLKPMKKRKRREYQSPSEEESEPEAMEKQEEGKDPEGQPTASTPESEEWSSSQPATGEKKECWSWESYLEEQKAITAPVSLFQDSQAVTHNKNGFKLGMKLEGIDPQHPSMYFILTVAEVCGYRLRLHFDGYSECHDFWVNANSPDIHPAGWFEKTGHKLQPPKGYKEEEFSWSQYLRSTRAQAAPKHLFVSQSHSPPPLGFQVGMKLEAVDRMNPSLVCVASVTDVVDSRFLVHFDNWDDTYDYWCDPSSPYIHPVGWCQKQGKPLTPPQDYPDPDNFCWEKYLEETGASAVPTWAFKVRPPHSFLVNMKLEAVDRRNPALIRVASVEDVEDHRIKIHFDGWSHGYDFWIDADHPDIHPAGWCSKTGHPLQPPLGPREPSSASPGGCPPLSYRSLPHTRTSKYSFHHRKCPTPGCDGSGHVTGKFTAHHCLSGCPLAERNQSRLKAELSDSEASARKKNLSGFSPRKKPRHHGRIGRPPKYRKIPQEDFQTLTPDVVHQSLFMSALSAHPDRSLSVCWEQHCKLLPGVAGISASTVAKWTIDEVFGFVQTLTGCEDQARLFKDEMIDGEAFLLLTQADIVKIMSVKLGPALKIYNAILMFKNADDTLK
Description: as §1

TP53-binding protein 1 [6] = biological target: T5, TP53-binding protein 1 (Homo sapiens, UniProt Q12888); experiment: AlphaScreen Assay
Description: as §1

TP53-binding protein 1 [7] = biological target: T5, TP53-binding protein 1; experiment: ITC
Description: All ITC measurements were recorded at 25 °C with an AutoITC200 microcalorimeter (MicroCal Inc.). All protein and compound stock samples were in the target buffer (25 mM Tris-HCl, pH 8, 150 mM NaCl, and 2 mM β-mercaptoethanol), and then diluted in the same buffer to achieve the desired concentrations: 90 200 μM protein and 1 2 mM compound depending on the expected dissociation constant. The concentration of protein stock solutions were established using the Edelhoch method, whereas 10 mM compound stock solutions were prepared gravimetrically based on molecular weight. A typical experiment included a single 0.2 μL compound injection into a 200 μL cell filled with protein, followed by 25 subsequent 1.5 μL injections of compound. Injections were performed with a spacing of 180 seconds and a reference power of 8 μcal/sec.

MBT domain-containing protein 1, sequence (Q05BQ5 whole entry, the tested form may be a part): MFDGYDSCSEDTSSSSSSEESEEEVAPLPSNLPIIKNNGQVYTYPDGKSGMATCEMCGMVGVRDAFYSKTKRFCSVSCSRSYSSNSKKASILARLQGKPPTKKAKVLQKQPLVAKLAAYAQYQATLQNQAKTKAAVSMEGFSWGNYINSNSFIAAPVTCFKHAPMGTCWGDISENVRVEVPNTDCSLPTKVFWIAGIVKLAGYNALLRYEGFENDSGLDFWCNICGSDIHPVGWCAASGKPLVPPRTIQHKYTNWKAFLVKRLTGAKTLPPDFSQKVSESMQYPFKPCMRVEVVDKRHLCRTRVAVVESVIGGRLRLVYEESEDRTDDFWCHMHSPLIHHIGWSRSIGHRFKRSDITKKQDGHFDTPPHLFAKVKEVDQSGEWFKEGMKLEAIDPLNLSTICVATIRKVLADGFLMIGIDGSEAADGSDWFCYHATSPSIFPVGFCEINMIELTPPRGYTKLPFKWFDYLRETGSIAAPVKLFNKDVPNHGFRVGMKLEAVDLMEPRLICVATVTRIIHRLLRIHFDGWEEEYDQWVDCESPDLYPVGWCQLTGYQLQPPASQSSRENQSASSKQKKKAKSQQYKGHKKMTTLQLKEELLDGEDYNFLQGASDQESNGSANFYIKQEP
Lysine-specific demethylase 5A, sequence (P29375 whole entry): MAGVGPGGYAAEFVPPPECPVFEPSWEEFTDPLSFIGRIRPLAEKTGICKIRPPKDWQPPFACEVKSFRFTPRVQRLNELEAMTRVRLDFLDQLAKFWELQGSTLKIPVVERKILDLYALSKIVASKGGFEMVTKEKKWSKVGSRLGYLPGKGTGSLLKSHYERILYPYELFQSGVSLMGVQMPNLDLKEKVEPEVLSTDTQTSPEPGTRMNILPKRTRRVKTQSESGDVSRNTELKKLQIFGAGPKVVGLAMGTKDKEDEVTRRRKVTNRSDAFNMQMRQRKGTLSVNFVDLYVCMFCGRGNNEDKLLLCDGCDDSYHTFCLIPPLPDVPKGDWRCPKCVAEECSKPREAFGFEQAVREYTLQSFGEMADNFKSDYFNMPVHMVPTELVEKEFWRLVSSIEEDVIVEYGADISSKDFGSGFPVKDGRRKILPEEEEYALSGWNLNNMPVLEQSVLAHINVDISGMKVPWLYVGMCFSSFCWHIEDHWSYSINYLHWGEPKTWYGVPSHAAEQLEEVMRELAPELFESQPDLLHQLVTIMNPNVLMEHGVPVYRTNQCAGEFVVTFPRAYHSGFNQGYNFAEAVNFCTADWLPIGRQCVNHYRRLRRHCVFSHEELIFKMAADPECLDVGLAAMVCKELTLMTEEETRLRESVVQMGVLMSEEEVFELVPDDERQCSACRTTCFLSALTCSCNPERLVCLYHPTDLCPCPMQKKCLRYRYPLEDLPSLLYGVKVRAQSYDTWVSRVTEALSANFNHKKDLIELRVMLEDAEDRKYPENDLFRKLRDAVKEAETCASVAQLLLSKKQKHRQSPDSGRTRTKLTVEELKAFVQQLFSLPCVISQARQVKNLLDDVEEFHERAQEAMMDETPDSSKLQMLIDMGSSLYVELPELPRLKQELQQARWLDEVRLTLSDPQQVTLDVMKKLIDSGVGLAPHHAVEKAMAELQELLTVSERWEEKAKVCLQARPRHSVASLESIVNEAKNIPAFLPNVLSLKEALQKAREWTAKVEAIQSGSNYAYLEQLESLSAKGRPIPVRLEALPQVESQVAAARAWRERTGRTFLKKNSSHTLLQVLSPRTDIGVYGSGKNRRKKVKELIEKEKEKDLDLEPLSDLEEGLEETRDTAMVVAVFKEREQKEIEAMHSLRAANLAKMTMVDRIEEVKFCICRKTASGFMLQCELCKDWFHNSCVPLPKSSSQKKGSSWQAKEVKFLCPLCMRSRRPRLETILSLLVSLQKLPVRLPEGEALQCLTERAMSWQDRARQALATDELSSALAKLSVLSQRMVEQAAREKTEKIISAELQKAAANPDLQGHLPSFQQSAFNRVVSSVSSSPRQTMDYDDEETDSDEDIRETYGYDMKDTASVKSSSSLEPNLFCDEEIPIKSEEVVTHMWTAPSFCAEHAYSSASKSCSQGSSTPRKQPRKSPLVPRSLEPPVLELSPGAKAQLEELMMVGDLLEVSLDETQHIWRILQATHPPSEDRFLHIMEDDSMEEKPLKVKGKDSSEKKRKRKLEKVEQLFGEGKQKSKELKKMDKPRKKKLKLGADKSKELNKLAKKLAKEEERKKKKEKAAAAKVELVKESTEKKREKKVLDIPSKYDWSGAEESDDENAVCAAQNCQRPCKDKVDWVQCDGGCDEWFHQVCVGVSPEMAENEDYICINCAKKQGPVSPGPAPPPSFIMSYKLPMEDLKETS
PHD finger protein 23, sequence (Q9BUL5 whole entry): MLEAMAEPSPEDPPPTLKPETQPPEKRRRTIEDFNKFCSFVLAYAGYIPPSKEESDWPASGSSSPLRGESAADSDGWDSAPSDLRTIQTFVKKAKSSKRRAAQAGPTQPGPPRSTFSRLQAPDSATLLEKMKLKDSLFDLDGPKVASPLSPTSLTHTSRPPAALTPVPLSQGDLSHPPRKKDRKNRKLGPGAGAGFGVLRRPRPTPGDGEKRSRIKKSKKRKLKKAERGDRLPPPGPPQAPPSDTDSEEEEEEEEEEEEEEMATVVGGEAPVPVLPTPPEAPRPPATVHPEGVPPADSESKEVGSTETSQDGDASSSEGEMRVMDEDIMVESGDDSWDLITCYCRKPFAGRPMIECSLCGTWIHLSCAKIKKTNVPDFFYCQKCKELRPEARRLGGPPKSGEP
T5 sequence (Q12888 whole entry): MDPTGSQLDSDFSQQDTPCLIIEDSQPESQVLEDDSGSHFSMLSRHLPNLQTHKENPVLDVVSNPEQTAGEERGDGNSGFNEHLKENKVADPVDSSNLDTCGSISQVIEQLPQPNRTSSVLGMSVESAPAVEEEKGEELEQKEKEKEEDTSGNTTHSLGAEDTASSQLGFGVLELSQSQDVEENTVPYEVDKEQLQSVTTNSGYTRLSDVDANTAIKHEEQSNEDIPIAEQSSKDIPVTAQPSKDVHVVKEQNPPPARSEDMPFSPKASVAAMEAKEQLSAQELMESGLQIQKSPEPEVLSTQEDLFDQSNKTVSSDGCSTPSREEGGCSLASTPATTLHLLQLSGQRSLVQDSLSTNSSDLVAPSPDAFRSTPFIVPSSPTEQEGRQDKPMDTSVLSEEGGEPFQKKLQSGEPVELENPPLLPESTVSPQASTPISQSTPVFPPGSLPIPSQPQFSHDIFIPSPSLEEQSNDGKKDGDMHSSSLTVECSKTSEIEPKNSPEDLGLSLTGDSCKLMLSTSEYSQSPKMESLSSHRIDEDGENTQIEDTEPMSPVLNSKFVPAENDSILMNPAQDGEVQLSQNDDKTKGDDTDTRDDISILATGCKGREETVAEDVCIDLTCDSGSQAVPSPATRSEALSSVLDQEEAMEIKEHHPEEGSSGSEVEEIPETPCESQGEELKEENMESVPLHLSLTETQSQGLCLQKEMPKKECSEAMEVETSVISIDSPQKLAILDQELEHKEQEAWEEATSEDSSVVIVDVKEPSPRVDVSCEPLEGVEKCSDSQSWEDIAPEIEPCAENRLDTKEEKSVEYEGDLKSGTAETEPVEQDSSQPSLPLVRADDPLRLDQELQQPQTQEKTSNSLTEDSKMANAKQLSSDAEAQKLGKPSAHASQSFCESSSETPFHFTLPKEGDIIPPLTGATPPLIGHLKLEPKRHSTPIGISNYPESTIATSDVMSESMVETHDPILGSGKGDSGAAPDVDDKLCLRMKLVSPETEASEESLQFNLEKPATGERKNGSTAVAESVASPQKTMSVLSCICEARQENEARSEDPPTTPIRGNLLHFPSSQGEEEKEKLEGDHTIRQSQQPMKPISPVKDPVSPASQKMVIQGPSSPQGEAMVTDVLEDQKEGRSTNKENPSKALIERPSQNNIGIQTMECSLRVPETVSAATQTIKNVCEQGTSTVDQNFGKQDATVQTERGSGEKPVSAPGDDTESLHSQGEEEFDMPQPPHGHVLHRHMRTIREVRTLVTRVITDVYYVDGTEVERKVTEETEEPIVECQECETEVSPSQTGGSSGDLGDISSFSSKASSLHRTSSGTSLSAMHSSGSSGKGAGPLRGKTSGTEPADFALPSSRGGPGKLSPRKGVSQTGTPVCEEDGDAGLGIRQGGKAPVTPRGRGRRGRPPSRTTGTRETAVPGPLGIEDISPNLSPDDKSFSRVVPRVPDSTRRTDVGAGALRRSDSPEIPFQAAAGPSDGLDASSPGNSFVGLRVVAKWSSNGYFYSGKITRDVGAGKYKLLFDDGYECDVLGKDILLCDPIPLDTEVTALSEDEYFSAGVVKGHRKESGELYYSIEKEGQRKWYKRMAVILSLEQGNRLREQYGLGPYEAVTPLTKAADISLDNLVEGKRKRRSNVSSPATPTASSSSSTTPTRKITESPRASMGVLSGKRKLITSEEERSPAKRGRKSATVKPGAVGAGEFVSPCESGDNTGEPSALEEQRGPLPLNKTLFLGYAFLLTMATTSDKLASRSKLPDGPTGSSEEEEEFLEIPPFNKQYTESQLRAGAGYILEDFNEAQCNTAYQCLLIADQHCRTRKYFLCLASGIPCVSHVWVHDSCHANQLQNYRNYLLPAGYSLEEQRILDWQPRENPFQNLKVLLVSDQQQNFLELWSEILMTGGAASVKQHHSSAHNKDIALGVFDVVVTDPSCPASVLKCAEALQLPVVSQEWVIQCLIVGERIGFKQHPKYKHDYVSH

| Kd (TP53-binding protein 1 [7]) | SMILES | IC50 [1] | IC50 [2] | IC50 (PHD finger protein 19) | IC50 [3] | IC50 (PHD finger protein 23) | IC50 [4] | IC50 (PHD finger protein 1) | IC50 [5] | IC50 (TP53-binding protein 1 [6]) |
| --- | --- | --- | --- | --- | --- | --- | --- | --- | --- | --- |
| – | CC(C)(C)OCCCNC(=O)c1cccc(Br)c1 [3-Bromo-N-(3-(tert-butoxy)propyl)benzamide (5)] | > 100 µM | > 100 µM | > 100 µM | > 100 µM | > 100 µM | > 100 µM | > 100 µM | > 100 µM | > 100 µM |
| – | CN(CCCNC(=O)c1cccc(Br)c1)C(C)(C)C [3-Bromo-N-(3-(tert-butyl(methyl)amino)propyl)benzamide (UNC2892, 4)] | > 500 µM | > 500 µM | > 500 µM | > 500 µM | > 500 µM | > 500 µM | > 500 µM | > 500 µM | > 500 µM |
| 22 µM | CC(C)(C)NCCCNC(=O)c1cccc(Br)c1 [3-Bromo-N-(3-(tert-butylamino)propyl)benzamide (UNC2170, 1)] | > 500 µM | > 500 µM | > 500 µM | > 500 µM | > 500 µM | > 500 µM | > 500 µM | > 500 µM | 29 µM |
